The text below walks through data of patent publication US9328369B2, “Process for production of useful substance, and surfactant for use in the process” (priority 2009, dated 2016).

The test system of the assay is Escherichia coli (α). Kind of assay: Screening of secretion efficiency, alkaline phosphatase expressing strain. In kind it is cell-based. The note with it: surfactant 1 wt %; 37° C., 1 hour; ELISA, anti-His-tag antibody. From the text: An alkaline phosphatase (phoA) gene of an Escherichia coli strain W3110 was amplified by the PCR method using primers 1 and 2 (Table 4). After being treated with restriction enzymes NdeI and BamHI, a PCR fragment was bound with an NdeI restriction enzyme site and with a BamHI restriction enzyme site of a pET-22b plasmid (product of Novagen). Then, the plasmid was transformed into an AG1 (DE3) Escherichia coli strain formed by transforming an Escherichia coli strain AG1 (product of TOYOBO Co., LTD.) with use of a λDE3 Lysogenization Kit (product of Novagen). In this manner, an alkaline phosphatase expressing strain (a) was formed.
A pdxA gene of an Escherichia coli strain W3110 was amplified by the PCR method using primers 5 and 6 (Table 4). After being treated with restriction enzymes NdeI and BamHI, a PCR fragment was bound to an NdeI restriction enzyme site and a BamHI restriction enzyme site of a pET-22b plasmid (product of Novagen). Then, the plasmid was transformed into an AG1 (DE3) Escherichia coli strain to form a PdxA expressing strain (γ).
In this manner, culture solutions were prepared.
(2) The strains were collected using a centrifuge (4,000 G, 4° C., 15 minutes). Each of the collected Escherichia coli strains was resuspended in 1 mL of a TB culture solution (product of Difco) and chloramphenicol (30 mg/L) and IPTG (100 μM) were added thereto. Shake culture at 37° C. for 3 hours induced expression of phoA, torA, and pdxA.
(3) Subsequently, harvesting using a centrifuge was carried out again (4,000 G, 4° C., 15 minutes). Each of the collected Escherichia coli strains was resuspended in 2.5 mL of a Tris-NaCl buffer solution (50 mM Tris (pH 7.5), 100 mM NaCl). The resulting solution was divided into 25-μL portions at a time to be mixed with 25 μL of a Tris-NaCl buffer solution.
(4) Then, the solution was allowed to stand at 37° C. for 1 hour. The supernatant solution was collected and diluted in a Tris-NaCl buffer solution to a proper concentration. Here, the quantification of the recombinant protein in the resulting solution was carried out by ELISA assay with use of an anti-His-tag antibody. The sample prior to the centrifugation in the process (3) was treated with ultrasonic waves (200 W, 10 minutes) and the quantification of the recombinant protein therein was similarly carried out by ELISA assay with use of an anti-His-tag antibody. The ratio of lysed bacteria was obtained with use of Escherichia coli (γ), and the secretion efficiencies of the recombinant proteins of Escherichia coli (α) and (β) were calculated by using the following formula. […] Secretion efficiency (%)=100×{(X/Y)−Z}.
In the formula, “X” represents the amount of the recombinant protein in the culture solution after removal of bacterial cells by centrifugation in the case of using Escherichia coli (α) or (β).
“Y” represents the amount of the whole recombinant protein in the culture solution in the case of using Escherichia coli (α) or (β).
“Z” represents the ratio of lysed bacteria obtained with use of Escherichia coli (γ), which is determined by the following formula: Z=Z1/Z2.
In the formula, “Z1” represents the amount of the recombinant protein in the culture solution which remains after removal of bacterial cells by centrifugation in the case of using Escherichia coli (γ).
“Z2” represents the amount of the whole recombinant protein in the culture solution in the case of using Escherichia coli (γ).
Escherichia coli (α) and (β) were each cultured in the same manner as in the above case except that polyoxyethylene (3 mol) tridecyl ether sodium acetate as the surfactant (A) was added right after the resuspension of the Escherichia coli in the buffer solution in the process (3) of A-0, in an amount of 1% by weight on the basis of the weight of the suspension of the bacterium. The secretion efficiency was calculated according to the above-mentioned definition.
“Polyoxyethylene (Mw = 190) stearic acid diester [A-33]”: the “Secretion efficiency (%) Escherichia coli (α)” value came to 5.5%. For “Sodium polyoxyethylene (2.5 mol) laurylether sulfate [A-11]” the value was 53.2%; for “Polyethylene glycol monoisostearate [A-40]”, 4.9%. For “EO 3 mol adduct of higher alcohol (C11 to C 15) [A-10]” the value was 56.9%; for `CCCCCCCCCC[N+](C)(C)CCCCCCCCCC.[Cl-]` [A-48, Didecyl dimethyl ammonium chloride], 2.7%; for `CCCCCCCCCCCCCCCCCC[N+](C)(C)CCCCCCCCCCCCCCCCCC.[Cl-]` [A-50, Distearyl dimethyl ammonium chloride], 2.3%. For “Polyoxyethylene glyceryl triisostearate [A-32]” the value was 5.9%. Polyoxyethylene isostearyl ether [A-34]: the “Secretion efficiency (%) Escherichia coli (α)” value is given as 5.3%. In the case of “Triethanol amine alkyl (C12, C13) sulfate [A-18]”, the “Secretion efficiency (%) Escherichia coli (α)” value was determined as 30.7%. With “Lanolin fatty acid aminopropyl ethylene dimethyl ammonium ethyl sulfate [A-28]” the figure was 9.2%; with “Polyoxyethylene (3 mol) lauryl ether acetate [A-24]”, 16.1%. With “Polyoxyethylene(EO 20 mol)sorbitan monostearate [A-72]”, the “Secretion efficiency (%) Escherichia coli (α)” value stood at 0.0%. Regarding “Isostearylalcohol polyoxyethylene (5 mol) sodium phosphate [A-31]”, the “Secretion efficiency (%) Escherichia coli (α)” value is listed as 6.2%. For “EO 10 mol adduct of oleyl alcohol [A-59]” the value was 1.1%; for `C[C@H](CCC(=O)[O-])[C@H]1CC[C@H]2[C@@H]3[C@H](O)C[C@@H]4C[C@H](O)CC[C@]4(C)[C@H]3C[C@H](O)[C@]12C.[Na+]` [A-82, sodium cholate], 0.0%; for “Polyoxyethylene(Mw = 1000)dioleate [A-66]”, 0.3%.

Take “Oleic acid 4.5 mol ester of sorbitol EO 40 mol adduct [A-63]”: the “Secretion efficiency (%) Escherichia coli (α)” value worked out at 0.7%. With Behenylamide propyldimethylamine [A-47] the figure was 2.8%. With “Sodium dodecyl diphenyl ether disulfonate [A-8]” the figure was 79.1%; with “2-alkyl-N-carboxymethyl-N-hydroxyethyl imidazolinium betaine [A-23]”, 20.2%.

“Polyoxyethylene (20 mol) sorbitan monolaurate [A-56]”: the “Secretion efficiency (%) Escherichia coli (α)” value turned out to be 1.6%. For “Polyoxyethylene (Mw = 200) oleate monoester [A-35]” the value was 5.3%; for “EO 25 mol adduct of cured castor oil [A-44]”, 3.0%; for “Polyethylene glycol diisostearate [A-22]”, 26.2%. For the compound “PO 20 mol and EO 9 mol adduct of ethylhexanol [A-51]”, the “Secretion efficiency (%) Escherichia coli (α)” value turned out to be 2.3%. For “EO 24 mol adduct trilaurate of trimethylolpropane [A-64]” the value was 0.5%.

In the case of `CCCCCCCCCCCCOS(=O)(=O)[O-].[Na+]` [A-69, Sodium lauryl sulfate], the “Secretion efficiency (%) Escherichia coli (α)” value is 0.0%. For EO 6 mol adduct of decyl alcohol [A-12] the value was 53.1%; for “Polyoxyethylene (Mw = 300) oleate diester [A-57]”, 1.5%; for “Lauryl diphenyl ether sodium disulfonate [A-74]”, 0.0%.

As for “Polyoxyethylene (Mw = 400) oleate monoester [A-58]”, the “Secretion efficiency (%) Escherichia coli (α)” value stood at 1.3%. With `CCCCCCCCCCCCCCCCCC[N+](C)(C)C.[Cl-]` [A-15, Stearyl trimethyl ammonium chloride] the figure was 37.3%; with “Polyethylene glycol diisostearate [A-38]”, 5.1%. For Sorbitan monooleate [A-43] the value was 3.5%.

With “EO 20 mol adduct of sorbitan trioleate [A-41]”, the “Secretion efficiency (%) Escherichia coli (α)” value is recorded as 4.6%. As to “EO 10 mol adduct of cured castor oil [A-55]”, the “Secretion efficiency (%) Escherichia coli (α)” value is listed as 1.7%.

As for “polyoxyethylene-p-isooctyl phenol [A-16]”, the “Secretion efficiency (%) Escherichia coli (α)” value stood at 36.7%. On to “Palm oil fatty acid diethanol amide [A-2]”, for which the “Secretion efficiency (%) Escherichia coli (α)” value came to 97.5%. For Palm oil fatty acid sorbitan [A-54] the value was 1.7%; for “Polyethylene glycol monoisostearate [A-29]”, 7.6%. On to `CCCCCCCCCC[N+](C)(C)CCCCCCCCCC.[Cl-]` [A-20, Didecyl dimethylammonium chloride], for which the “Secretion efficiency (%) Escherichia coli (α)” value is 28.7%.

Turning to “Isostearyl alcohol polyoxyethylene (5 mol) adduct sodium ether carboxylate [A-52]”, the “Secretion efficiency (%) Escherichia coli (α)” value amounted to 2.2%. For “Polyoxyethylene(10 mol)cetyl ether [A-65]” the value was 0.5%; for “Didecyl dimethyl ammonium adipate [A-42]”, 4.3%. With “Polyoxyethylene(Mw = 600)oleate monoester [A-67]” the figure was 0.3%. With Sorbitan trioleate [A-49] the figure was 2.4%; with “Polyoxyethylene (20 mol) sorbitan monooleate [A-37]”, 5.2%.

Regarding “Stearylamine polyoxyethylene (15 mol) adduct [A-26]”, the “Secretion efficiency (%) Escherichia coli (α)” value is 11.0%. For “Ester thiodipropionate of polyoxyethylene (3 mol) alkyl (C12, C15) ether [A-25]” the value was 11.8%. For “1,2-dodecandiol monooxyethylene adduct [A-4]” the value was 90.7%.
